Experimental data published in article PMC4030953, “Pyranose Dehydrogenase from Agaricus campestris and Agaricus xanthoderma: Characterization and Applications in Carbohydrate Conversions” (Biomolecules, 2013).

Columns and labels:
[1] = molecular target: T1, AcPDH (Agaricus campestris, UniProt V5NDL4); assay: in-gel flavin fluorescence after SDS-PAGE; assay type: binding; conditions: covalent; UV 302 nm
T1 construct: gene pdh1

[2] = molecular target: T1, AcPDH; assay: spectrophotometric electron acceptor reduction; assay type: biochemical; conditions: apparent, 25 mM D-glucose, pH 8.5, 30 °C
Text: spectrophotometric electron acceptor reduction on AcPDH

[3] = molecular target: T2, AxPDH (Agaricus xanthodermus, UniProt V5NC32); assay: spectrophotometric electron acceptor reduction; assay type: biochemical; conditions: apparent, 25 mM D-glucose, pH 8.5, 30 °C
T2 construct: gene pdh1
T2 sequence (V5NC32 26-600): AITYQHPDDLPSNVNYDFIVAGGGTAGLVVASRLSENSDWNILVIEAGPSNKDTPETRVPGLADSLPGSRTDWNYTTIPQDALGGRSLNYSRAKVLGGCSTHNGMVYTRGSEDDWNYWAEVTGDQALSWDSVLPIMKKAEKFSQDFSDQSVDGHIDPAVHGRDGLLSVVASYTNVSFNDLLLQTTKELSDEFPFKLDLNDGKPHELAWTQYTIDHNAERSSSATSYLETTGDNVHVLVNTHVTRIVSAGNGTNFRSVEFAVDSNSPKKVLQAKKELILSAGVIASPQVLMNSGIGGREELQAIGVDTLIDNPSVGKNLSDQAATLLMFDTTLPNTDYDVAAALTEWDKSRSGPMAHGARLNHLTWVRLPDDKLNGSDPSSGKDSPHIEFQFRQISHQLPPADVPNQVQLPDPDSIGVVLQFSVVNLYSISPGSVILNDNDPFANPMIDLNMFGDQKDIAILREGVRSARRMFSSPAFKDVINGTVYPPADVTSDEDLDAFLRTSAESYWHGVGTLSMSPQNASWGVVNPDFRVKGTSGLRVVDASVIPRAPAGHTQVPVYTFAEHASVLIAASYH
Text: spectrophotometric electron acceptor reduction on AxPDH

T1 sequence (V5NDL4 22-595): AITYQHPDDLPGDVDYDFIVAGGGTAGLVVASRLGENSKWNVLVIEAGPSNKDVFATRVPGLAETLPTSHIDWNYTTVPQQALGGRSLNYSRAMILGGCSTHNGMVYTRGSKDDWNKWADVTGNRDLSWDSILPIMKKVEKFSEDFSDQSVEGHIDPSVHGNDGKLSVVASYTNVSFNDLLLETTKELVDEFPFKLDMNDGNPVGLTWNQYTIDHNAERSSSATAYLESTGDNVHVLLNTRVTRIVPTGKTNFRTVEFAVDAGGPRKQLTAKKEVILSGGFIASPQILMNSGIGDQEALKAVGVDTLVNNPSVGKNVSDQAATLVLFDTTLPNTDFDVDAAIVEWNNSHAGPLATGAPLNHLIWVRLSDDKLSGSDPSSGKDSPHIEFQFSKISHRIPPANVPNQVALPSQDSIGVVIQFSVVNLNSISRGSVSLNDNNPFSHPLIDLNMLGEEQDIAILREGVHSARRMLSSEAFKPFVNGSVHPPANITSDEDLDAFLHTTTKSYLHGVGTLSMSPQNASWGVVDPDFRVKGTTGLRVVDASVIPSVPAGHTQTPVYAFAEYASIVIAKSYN

Structure (SMILES) | in-gel flavin fluorescence after SDS-PAGE [1] | Km [2] | Km [3]
Cc1cc2nc3c(=O)[nH]c(=O)nc-3n(C[C@H](O)[C@H](O)[C@H](O)COP(=O)(O)OP(=O)(O)OC[C@H]3O[C@@H](n4cnc5c(N)ncnc54)[C@H](O)[C@@H]3O)c2cc1C [FAD] | AcPDH and AxPDH showed a bright band under UV-light |  | 
F[P-](F)(F)(F)(F)F.[Fe+3].c1cc[cH-]c1.c1cc[cH-]c1 [Fc^+PF6] |  | 1190 ± 170 µM | 30 µM
